Measurements published in patent US12600724B2, “Indole alkaloid and preparation method and use thereof” (NANJING UNIVERSITY OF CHINESE MEDICINE, priority 2022, dated 2026).

These compounds were tested on primary DRG neuron (assay: Axon growth of primary DRG neurons (immunofluorescence, Neuro J)). Settings: 10 μm, 24 hours.
Assay type: cell-based, C57BL/6J mice
Procedure: Diabetic peripheral neuropathy involved a sensory neuron first, and a main pathological change was axonal atrophy and degeneration, or even disappearance. […] Therefore, the compounds in the examples were added with the primary DRG neuron to incubate for a certain period of time, then the axon growth of the DRG neuron was detected by immunofluorescence, and an axon length was quantified by Neuro J, so as to evaluate the promotion effect of the compound on the axon growth of the peripheral sensory neuron.
Primary antibodies of mice anti-β-tubulin III used for fluorescent staining were purchased from Sigma Company, cell culture reagents were all purchased from Gibco Company, and DRG neuronal cells were taken from C57BL/6J mice. Specific experimental steps were as follows: fresh DRG of the C57 mice was extracted to digest into a single-cell suspension and then inoculated into a culture plate for adherent culture overnight, with vinblastine as a positive drug, the to-be-detected compounds S1 to S87 ([…]) synthesized in the above examples were given to incubate for 24 hours, then an original culture medium was removed, 4% paraformaldehyde was added into each well to fix for 15 minutes after PBS washing, the mixture was permeabilized with 0.3% TritonX-100 for 5 minutes and sealed at room temperature with 4% BSA for 1 hour, a primary antibody (1:1000) was incubated at 4° C. overnight, a goat anti-mouse fluorescent secondary antibody (1:300) was incubated at room temperature in the dark for 1 hour, and a sealed slide was imaged by a fluorescence microscope (Leica). According to the image, a total axon length of a single DRG neuron was tracked by a Neuro J plug-in in Image J software, and a multiple of the total axon length relative to that of the blank control group was calculated.

Compound | Promotion of axon growth of the primary DRG neuron compared with the positive drug (in words)
CC[C@@]12C=C(C(=O)NCC(=O)OCCOCCOCCOCCOCCO)n3c4c(c5ccccc53)CCN(CCC1)[C@H]42 [Compound S27] | more outstanding effect
CC[C@@]12C=C(C(=O)NCC(=O)O)n3c4c(c5ccccc53)CCN(CCC1)[C@H]42 [Compound S66] | more outstanding effect
CC[C@@]12C=C(C(=O)NCC(=O)OCCOCCOCCOCCOC)n3c4c(c5ccccc53)CCN(CCC1)[C@H]42 [Compound S3] | more outstanding effect
CC[C@@]12C=C(C(=O)OCCCC(=O)OCCOCCOCCOCCOCCOCCO)n3c4c(c5ccccc53)CCN(CCC1)[C@H]42 [Compound S62] | more outstanding effect

Same assay, conditions: Mus musculus, 24 hours, multiple of total axon length of a single DRG neuron relative to blank control group

Compound | fold induction at 10 µM
CC[C@@]12C=C(C(=O)NCC(=O)N[C@@H](Cc3ccc(O)cc3)C(=O)O)n3c4c(c5ccccc53)CCN(CCC1)[C@H]42 [Compound S78] | 10.2
CC[C@@]12C=C(C(=O)OCCC(=O)OCCOCCOCCO)n3c4c(c5ccccc53)CCN(CCC1)[C@H]42 [Compound S57] | 10.8
CC[C@@]12C=C(C(=O)NCC(=O)OCCOCCOCCOCCOCCO)n3c4c(c5ccccc53)CCN(CCC1)[C@H]42 [Compound S27] | 12.9
CC[C@@]12C=C(C(=O)N[C@@H](CC(=O)O)C(=O)O)n3c4c(c5ccccc53)CCN(CCC1)[C@H]42 [Compound S70] | 10.8
CC[C@@]12C=C(C(=O)NCC(=O)O)n3c4c(c5ccccc53)CCN(CCC1)[C@H]42 [Compound S66] | 12.8
CC[C@@]12C=C(C(=O)N[C@@H](C)C(=O)OC)n3c4c(c5ccccc53)CCN(CCC1)[C@H]42 [Compound S82] | 12.5
CC[C@@]12C=C(C(=O)N[C@@H](CO)C(=O)OC)n3c4c(c5ccccc53)CCN(CCC1)[C@H]42 [Compound S85] | 11.8
CC[C@@]12C=C(C(=O)N[C@@H](Cc3ccccc3)C(=O)OCCOCCOCCOCCO)n3c4c(c5ccccc53)CCN(CCC1)[C@H]42 [Compound S33] | 10.9
CC[C@@]12C=C(C(=O)OCCC(=O)OCCO)n3c4c(c5ccccc53)CCN(CCC1)[C@H]42 [Compound S53] | 9.9
CC[C@@]12C=C(C(=O)NCC(=O)N[C@@H](CO)C(=O)O)n3c4c(c5ccccc53)CCN(CCC1)[C@H]42 [Compound S81] | 11.9
CC[C@@]12C=C(C(=O)N[C@@H](CC(N)=O)C(=O)O)n3c4c(c5ccccc53)CCN(CCC1)[C@H]42 [Compound S71] | 10.5
CCC(C)[C@H](NC(=O)C1=C[C@]2(CC)CCCN3CCc4c(n1c1ccccc41)[C@@H]32)C(=O)OCCOCCOCCOCCO (stereo partly shown) [Compound S32] | 12.3
CC[C@@]12C=C(C(=O)NCC(=O)OCCOCCOCCOCCOCCOC)n3c4c(c5ccccc53)CCN(CCC1)[C@H]42 [Compound S4] | 11.5
CC[C@@]12C=C(C(=O)NCC(=O)OCCOCCOCCOC)n3c4c(c5ccccc53)CCN(CCC1)[C@H]42 [Compound S2] | 9.5
CC[C@@]12C=C(C(=O)NCC(=O)N[C@H](C(=O)OCCOCCOCCOCCO)C(C)O)n3c4c(c5ccccc53)CCN(CCC1)[C@H]42 (stereo partly shown) [Compound S52] | 9.5
CC[C@@]12C=C(C(=O)NCC(=O)OCCOCCOC)n3c4c(c5ccccc53)CCN(CCC1)[C@H]42 [Compound S1] | 9.7
CC[C@@]12C=C(C(=O)NCC(=O)OCCOCCOCCOCCOC)n3c4c(c5ccccc53)CCN(CCC1)[C@H]42 [Compound S3] | 13.2
CC[C@@]12C=C(C(=O)N[C@@H](C)C(=O)O)n3c4c(c5ccccc53)CCN(CCC1)[C@H]42 [Compound S73] | 12.1
CC[C@@]12C=C(C(=O)N[C@@H](CO)C(=O)O)n3c4c(c5ccccc53)CCN(CCC1)[C@H]42 [Compound S68] | 11
CC[C@@]12C=C(C(=O)NCC(=O)OCCOCCOCCOCCOCCOCCO)n3c4c(c5ccccc53)CCN(CCC1)[C@H]42 [Compound S28] | 12.2
CC[C@@]12C=C(C(=O)OCCCC(=O)OCCOCCOCCOCCO)n3c4c(c5ccccc53)CCN(CCC1)[C@H]42 [Compound S61] | 11.3

Compound | fold induction at 10 µM
CC[C@@]12C=C(C(=O)OCCCC(=O)OCCOCCOCCOCCOCCOCCO)n3c4c(c5ccccc53)CCN(CCC1)[C@H]42 [Compound S62] | 12.8
CC[C@@]12C=C(C(=O)NCC(=O)OCCOCCO)n3c4c(c5ccccc53)CCN(CCC1)[C@H]42 [Compound S24] | 11.7
CC[C@@]12C=C(C(=O)N[C@H](C(=O)O)C(C)O)n3c4c(c5ccccc53)CCN(CCC1)[C@H]42 (stereo partly shown) [Compound S69] | 12.3
CC[C@@]12C=C(C(=O)NCC(=O)N[C@@H](CC(=O)O)C(=O)OCCOCCOCCOCCO)n3c4c(c5ccccc53)CCN(CCC1)[C@H]42 [Compound S50] | 11.3
CC[C@@]12C=C(C(=O)NCC(=O)N[C@@H](CS)C(=O)O)n3c4c(c5ccccc53)CCN(CCC1)[C@H]42 [Compound S76] | 11.1
CC[C@@]12C=C(C(=O)N(CC(=O)OCCOCCOCCOCCO)C3CC3)n3c4c(c5ccccc53)CCN(CCC1)[C@H]42 [Compound S64] | 11.3
CC[C@@]12C=C(C(=O)N[C@H](C(=O)O)C(C)C)n3c4c(c5ccccc53)CCN(CCC1)[C@H]42 [Compound S74] | 10.9
CC[C@@]12C=C(C(=O)N[C@@H](Cc3cc4ccccc4[nH]3)C(=O)OCCOCCOCCOCCO)n3c4c(c5ccccc53)CCN(CCC1)[C@H]42 [Compound S37] | 10.8
CC[C@@]12C=C(C(=O)N[C@@H](CC(N)=O)C(=O)OCCOCCOCCOCCOC)n3c4c(c5ccccc53)CCN(CCC1)[C@H]42 [Compound S16] | 11.2
CC[C@@]12C=C(C(=O)N[C@@H](CO)C(=O)OCCOCCOCCOCCO)n3c4c(c5ccccc53)CCN(CCC1)[C@H]42 [Compound S34] | 10.5
CC[C@@]12C=C(C(=O)N[C@@H](CC(C)C)C(=O)O)n3c4c(c5ccccc53)CCN(CCC1)[C@H]42 [Compound S67] | 11.3
CC[C@@]12C=C(C(=O)N[C@@H](C)C(=O)OCCOCCOCCOCCO)n3c4c(c5ccccc53)CCN(CCC1)[C@H]42 [Compound S29] | 12.5
CC[C@@]12C=C(C(=O)N[C@@H](CN)C(=O)OCCOCCOCCOCCO)n3c4c(c5ccccc53)CCN(CCC1)[C@H]42 [Compound S39] | 11.2
CC[C@@]12C=C(C(=O)N[C@@H](CC(N)=O)C(=O)OCCOCCOCCOCCO)n3c4c(c5ccccc53)CCN(CCC1)[C@H]42 [Compound S41] | 11
CC[C@@]12C=C(C(=O)N[C@H](C(=O)OCCOCCOCCOCCO)C(C)O)n3c4c(c5ccccc53)CCN(CCC1)[C@H]42 (stereo partly shown) [Compound S35] | 12.1
CC[C@@]12C=C(C(=O)N[C@H](C(=O)OC)C(C)C)n3c4c(c5ccccc53)CCN(CCC1)[C@H]42 [Compound S84] | 11
CC[C@@]12C=C(C(=O)NCC(=O)N[C@@H](CC(C)C)C(=O)OC)n3c4c(c5ccccc53)CCN(CCC1)[C@H]42 [Compound S86] | 11
CC[C@@]12C=C(C(=O)NCC(=O)OCCO)n3c4c(c5ccccc53)CCN(CCC1)[C@H]42 [Compound S23] | 10.3
CC[C@@]12C=C(C(=O)N(C)CC(=O)OCCOCCOCCOCCO)n3c4c(c5ccccc53)CCN(CCC1)[C@H]42 [Compound S63] | 10.9
CC[C@@]12C=C(C(=O)N[C@@H](CC(C)C)C(=O)OCCOCCOCCOCCO)n3c4c(c5ccccc53)CCN(CCC1)[C@H]42 [Compound S31] | 11.8
CC[C@@]12C=C(C(=O)N[C@@H](CCC(=O)O)C(=O)OCCOCCOCCOCCO)n3c4c(c5ccccc53)CCN(CCC1)[C@H]42 [Compound S43] | 11.2
